Columns and labels:
[1] = target: T1, KRAS G12D (Homo sapiens (Human), UniProt P01116, G12D); test: KRAS G12D RAF Disruption Assay (HTRF); assay type: biochemical; settings: recombinant GMPPNP-loaded KRAS G12D (5 nM), GST-RAF1 RBD (9 nM), HTRF signal
Procedure: Recombinant GMPPNP-loaded KRAS G12D (5 nM) was treated with compound at room temperature for 20 minutes in assay buffer (50 mM Tris pH 7.5, 100 mM NaCl, 1 mM MgCl2, 1 mM DTT, 100 ug/mL BSA).

[2] = target: T1, KRAS G12D; test: KRAS G12D Nucleotide Exchange Assay (HTRF); assay type: biochemical; settings: recombinant GDP-loaded KRAS G12D (20 nM), BIODIPY-labeled GDP (400 nM), recombinant SOS (10 nM), HTRF signal
Procedure: Recombinant GDP-loaded KRAS G12D (20 nM) was treated with compound at room temperature for 20 minutes in assay buffer (10 mM Hepes pH 7.4, 150 mM NaCl, 5 mM MgCl2, 0.0025% Igepal-CA630, 0.05% BSA, 1 mM DTT, 0.5 nM SA-Tb). BIODIPY-labeled GDP (400 nM) and recombinant SOS (10 nM) were added, and the reaction was incubated for 30 minutes.

T1 sequence (P01116-2 other isoform, or with tags, fused parts or gaps G12D): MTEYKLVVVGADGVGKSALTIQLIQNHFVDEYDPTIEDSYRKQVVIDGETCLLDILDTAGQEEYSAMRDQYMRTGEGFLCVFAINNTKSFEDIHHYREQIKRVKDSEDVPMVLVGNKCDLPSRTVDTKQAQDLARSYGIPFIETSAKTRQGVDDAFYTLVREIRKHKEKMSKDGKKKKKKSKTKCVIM

SMILES | KRASG12D RAF Disruption Assay (IC50, µM) [1] | KRASG12D Nucleotide Exchange Assay (IC50, µM) [2]
Oc1cc(-c2c(Cl)cc3c(N4CC[C@H]5CC[C@@H](C4)N5)nc(OC[C@]45CCCN4C[C@@H](F)C5)nc3c2F)c2ccccc2c1 (single isomer, unassigned) [Example 8-9] | 0.7 µM | 0.005 µM
Cc1cc(N)nc(-c2c(Cl)cc3c(N4CC5CCC(C4)NC5)nc(OC[C@@H]4CCCN4C)nc3c2F)c1C(F)(F)F (stereo partly drawn) [Example 2-2, 6-(6-chloro-4-{3,6-diazabicyclo[3.2.2]nonan-3-yl}-8-fluoro-2-{[(2S)-1-methylpyrrolidin-2-yl]methoxy}quinazolin-7-yl)-4-methyl-5-(trifluoromethyl)pyridin-2-amine] | 10.88 µM | 0.14 µM
C#Cc1c(F)ccc2cc(O)cc(-c3ccc4c(N5CC[C@H]6CC[C@@H](C5)N6)nc(OC[C@]56CCC[C@H]5N(C)CCC6)nc4c3F)c12 [Example 9-4, 4-(2-{[(4aS,7aR)-1-methyl-octahydro-1H-cyclopenta[b]pyridin-4a-yl]methoxy}-4-[(1S,6R)-3,9-diazabicyclo[4.2.1]nonan-3-yl]-8-fluoroquinazolin-7-yl)-5-ethynyl-6-fluoronaphthalen-2-ol] | 0.2 µM | 0.02 µM
CN1CCC[C@@]2(COc3nc(N4CC[C@H]5CC[C@@H](C4)N5)c4ccc(-c5cc(O)cc6ccccc56)c(F)c4n3)CCC[C@@H]12 [Example 9-1, 4-(2-{[(4aS,7aR)-1-methyl-octahydro-1H-cyclopenta[b]pyridin-4a-yl]methoxy}-4-[(1S,6R)-3,9-diazabicyclo[4.2.1]nonan-3-yl]-8-fluoroquinazolin-7-yl)naphthalen-2-ol] | 5.1 µM | 0.04 µM
Oc1cc(-c2c(Cl)cc3c(N4CC[C@H]5CC[C@@H](C4)N5)nc(OC[C@]45CCCN4C[C@@H](F)C5)nc3c2F)c2ccccc2c1 (single isomer, unassigned) [Example 8-10] | 14.2 µM | 0.50 µM
Cc1cc(N)nc(-c2c(Cl)cc3c(N4CC[C@H]5CC[C@@H](C4)N5)nc(OC[C@@]45CCCN4C[C@H](F)C5)nc3c2F)c1C(F)(F)F [Example 4-1, 6-(2-{[(2R,7aS)-2-fluoro-hexahydro-1H-pyrrolizin-7a-yl]methoxy}-6-chloro-4-[(1S,6R)-3,9-diazabicyclo[4.2.1]nonan-3-yl]-8-fluoroquinazolin-7-yl)-4-methyl-5-(trifluoromethyl)pyridin-2-amine] | 0.06 µM | 0.005 µM
Cc1cc(N)nc(-c2c(Cl)cc3c(N4CC[C@H]5CC[C@@H](C4)N5)nc(OC[C@@]45CCCN4C[C@@H](F)C5)nc3c2F)c1C(F)(F)F [Example 5, 6-(2-{[(2S,7aS)-2-fluoro-hexahydro-1H-pyrrolizin-7a-yl]methoxy}-6-chloro-4-[(1S,6R)-3,9-diazabicyclo[4.2.1]nonan-3-yl]-8-fluoroquinazolin-7-yl)-4-methyl-5-(trifluoromethyl)pyridin-2-amine] | 2.87 µM | <0.002 µM
CCc1cccc2cc(O)cc(-c3c(Cl)cc4c(N5CC[C@H]6CC[C@@H](C5)N6)nc(OC[C@@]56CCCN5C[C@H](F)C6)nc4c3F)c12 (single isomer, unassigned) [Example 8-2] | 19.6 µM | 1.3 µM
Oc1cc(-c2c(Cl)cc3c(N4CC[C@H]5CC[C@@H](C4)N5)nc(OC[C@@]45CCCN4C[C@H](F)C5)nc3c2F)c2ccccc2c1 (single isomer, unassigned) [Example 8-8] | 15.5 µM | 0.3 µM
CN1CCC[C@H]1COc1nc(N2CC[C@H]3CC[C@@H](C2)N3)c2cc(Cl)c(-c3cc(O)cc4ccccc34)c(F)c2n1 [Example 6, 4-{6-chloro-4-[(1S,6R)-3,9-diazabicyclo[4.2.1]nonan-3-yl]-8-fluoro-2-{[(2S)-1-methylpyrrolidin-2-yl]methoxy}quinazolin-7-yl}naphthalen-2-ol] | 3.68 µM | 0.01 µM
CCc1cccc2cc(O)cc(-c3c(Cl)cc4c(N5CC[C@H]6CC[C@@H](C5)N6)nc(OC[C@@]56CCCN5C[C@H](F)C6)nc4c3F)c12 (single isomer, unassigned) [Example 8-1] | 5.7 µM | 0.04 µM
CN1CCC[C@H]1COc1nc(N2CCN3CCC2CC3)c2cc(Cl)c(-c3cc(O)cc4ccccc34)c(F)c2n1 [Example 1-2, 4-(6-chloro-4-{1,4-diazabicyclo[3.2.2]nonan-4-yl}-8-fluoro-2-{[(2S)-1-methylpyrrolidin-2-yl]methoxy}quinazolin-7-yl)naphthalen-2-ol] | >100 µM | 13.66 µM
Oc1cc(-c2c(Cl)cc3c(N4CC[C@H]5CC[C@@H](C4)N5)nc(OC[C@@]45CCCN4C[C@H](F)C5)nc3c2F)c2c(F)cccc2c1 (single isomer, unassigned) [Example 8-5] | 0.07 µM | –

The remaining lines, values ahead:

KRASG12D RAF Disruption Assay (IC50, µM) [1] | KRASG12D Nucleotide Exchange Assay (IC50, µM) [2] | SMILES
43.1 µM | 2.2 µM | Nc1cc2cccc(F)c2c(-c2ccc3c(N4CC[C@H]5CC[C@@H](C4)N5)nc(OC[C@@]45CCCN4C[C@H](F)C5)nc3c2F)n1 [Example 11-4, 1-(2-{[(2R,7aS)-2-fluoro-hexahydro-1H-pyrrolizin-7a-yl]methoxy}-4-[(1S,6R)-3,9-diazabicyclo[4.2.1]nonan-3-yl]-8-fluoroquinazolin-7-yl)-8-fluoroisoquinolin-3-amine]
1.0 µM | 0.006 µM | Cc1cc(N)nc(-c2c(Cl)cc3c(N4CC[C@H]5CC[C@@H](C4)N5)nc(OCC4(CN5C6CCC5COC6)CC4)nc3c2F)c1C(F)(F)F [Example 10-2, 6-{6-chloro-4-[(1S,6R)-3,9-diazabicyclo[4.2.1]nonan-3-yl]-8-fluoro-2-{[1-({3-oxa-8-azabicyclo[3.2.1]octan-8-yl}methyl)cyclopropyl]methoxy}quinazolin-7-yl}-4-methyl-5-(trifluoromethyl)pyridin-2-amine]
3.2 µM | 0.03 µM | CCc1cccc2cc(O)cc(-c3ccc4c(N5CC[C@H]6CC[C@@H](C5)N6)nc(OC[C@@]56CCCN5C[C@H](F)C6)nc4c3F)c12 [Example 11-5, 4-(2-{[(2R,7aS)-2-fluoro-hexahydro-1H-pyrrolizin-7a-yl]methoxy}-4-[(1S,6R)-3,9-diazabicyclo[4.2.1]nonan-3-yl]-8-fluoroquinazolin-7-yl)-5-ethylnaphthalen-2-ol]
81 µM | 0.9 µM | Cc1cc(N)nc(-c2c(Cl)cc3c(N4CC[C@H]5CC[C@@H](C4)N5)nc(OC[C@@]45CCCN4C[C@@H](OC(F)F)C5)nc3c2F)c1C(F)(F)F (single isomer, unassigned) [Example 10-5]
2.7 µM | 0.06 µM | C#Cc1c(F)ccc2cc(O)cc(-c3ccc4c(N5CC[C@H]6CC[C@@H](C5)N6)nc(OCC5(CN(C)C)CC5)nc4c3F)c12 [Example 11-1, 4-{4-[(1S,6R)-3,9-diazabicyclo[4.2.1]nonan-3-yl]-2-({1-[(dimethylamino)methyl]cyclopropyl}methoxy)-8-fluoroquinazolin-7-yl}-5-ethynyl-6-fluoronaphthalen-2-ol]
80.0 µM | 0.33 µM | Cc1cc(N)nc(-c2ccc3c(N4CC[C@H]5CC[C@@H](C4)N5)nc(OC[C@]45CCCN4C[C@H](F)C5)nc3c2F)c1C(F)(F)F [Example 12-2, 6-(2-{[(2R,7aR)-2-fluoro-hexahydro-1H-pyrrolizin-7a-yl]methoxy}-4-[(1S,6R)-3,9-diazabicyclo[4.2.1]nonan-3-yl]-8-fluoroquinazolin-7-yl)-4-methyl-5-(trifluoromethyl)pyridin-2-amine]
1.0 µM | 0.007 µM | Cc1cc(N)nc(-c2c(Cl)cc3c(N4CC[C@H]5CC[C@@H](C4)N5)nc(OCC4(CN(C)C)CC4)nc3c2F)c1C(F)(F)F [Example 10-1, 6-{6-chloro-4-[(1S,6R)-3,9-diazabicyclo[4.2.1]nonan-3-yl]-2-({1-[(dimethylamino)methyl]cyclopropyl}methoxy)-8-fluoroquinazolin-7-yl}-4-methyl-5-(trifluoromethyl)pyridin-2-amine]
51.0 µM | 0.41 µM | Cc1cc(N)nc(-c2c(Cl)cc3c(N4CC[C@H]5CC[C@@H](C4)N5)nc(OCC4(CN5CCCC(F)C5)CC4)nc3c2F)c1C(F)(F)F (stereo partly drawn) [Example 10-9, 6-{6-chloro-4-[(1S,6R)-3,9-diazabicyclo[4.2.1]nonan-3-yl]-8-fluoro-2-({1-[(3-fluoropiperidin-1-yl)methyl]cyclopropyl}methoxy)quinazolin-7-yl}-4-methyl-5-(trifluoromethyl)pyridin-2-amine]
